These results are taken from patent publication US8309111B2, “High alcohol content foaming compositions with silicone-based surfactants” (Deb Worldwide Healthcare Inc., priority 2005, dated 2012).

The data set is described as follows: Foam evaluation of the prepared solutions: whether foam was produced, and foam description and quality. The format is physicochemical. As for the experimental part:
Examples 1 through 12 were prepared to illustrate the ability to produce alcohol-based disinfecting formulations which can be dispensed as foams using different surfactants and a solution of water and 50% ethanol. Examples 13 through 16 illustrate increasing concentrations of a silicone-based surfactant to produce foam with 40% ethanol. Examples 17 through 32 show increasing concentrations of ethanol with different silicone-based surfactants to produce foam. Examples 33 through 36 illustrate increasing concentrations of a silicone-based surfactant to produce acceptable foam at 62% ethanol. Examples 37 through 52 illustrate the ability to produce foam using different surfactants and a solution of 70% v/v Isopropanol. All parts and percentages are expressed by weight unless otherwise indicated.
The following examples were intended to evaluate the foaming ability of different groups of silicone surfactants with different combinations of ethanol, n-propyl alcohol and Isopropyl alcohol. They were also designed to asses the effect in the after feel as well as in the foam quality of some emollients and humectants, lipids, and other cosmetic type desired ingredients to be used with a leave-on hand sanitizer product. […]
The solutions prepared, were evaluated as to whether foam was produced or not and if so, then the foam produced was described as follows: […]

Cocamidopropyl betaine: where the note is “CAPB alone, 40% ethanol, 3% CAPB, versus 60% v/v ethanol with less than 1.0% silicone-based surfactant”, the “Foam result compared with silicone-based surfactants” value is reported as “unable to produce as good results”. Where the note is “above 40% ethanol”, the Acceptable foam result is given as “does not give any acceptable foam”.
